In US11076595B2, “1-(n,n-disubstituted carbamoyl) 4-(substituted sulfonyl)triazolin-5-one derivative, 4-(n,n-disubstituted carbamoyl) 1-(substituted sulfonyl)triazolin-5-one derivative, and herbicide containing said derivative as active ingredient” (HOKKO CHEMICAL INDUSTRY CO., LTD., priority 2017, dated 2021):

Tests used:
Type in all cases: in vivo
[1] = test system: Echinochloa crus-galli; assay: Test Example 11: herbicidal effect test by soil treatment in paddy field; settings: 120 g/10a active ingredient, 14 days after treatment
Method in brief: (§1)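 Seeds were sown 0-1 cm deep in puddled, fertilised paddy soil in Wagner pots and kept under about 3 cm of flooding in a greenhouse. Diluted emulsifiable concentrate was added dropwise right after sowing at 120 g a.i. per 10 are. Suppression (%) came from dry weight versus untreated pots after 14 days, two replicates.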

[2] = test system: Lindernia pyxidaria; assay: as above; settings: 120 g/10a active ingredient, 14 days after treatment
Method in brief: as §1

[3] = test system: Monochoria vaginalis; assay: as above; settings: 120 g/10a active ingredient, 14 days after treatment
Method in brief: as §1

[4] = test system: Scirpus juncoides; assay: as above; settings: 120 g/10a active ingredient, 14 days after treatment
Method in brief: as §1

[5] = test system: Echinochloa crus-galli; assay: Test Example 12: herbicidal effect test by treatment during growing period in paddy field; settings: 120 g/10a; treatment seven days after sowing in flooded paddy pot; assessed 14 days after treatment
Method in brief: (§2)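 Growing-period treatment in flooded paddy pots: the diluted emulsifiable concentrate was dripped in at 120 g a.i. per 10 are seven days after seeding. Inhibition is expressed as percent reduction in dry weight versus untreated pots, measured 14 days later in duplicate.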

[6] = test system: Lindernia pyxidaria; assay: as above; settings: 120 g/10a; treatment seven days after sowing in flooded paddy pot; assessed 14 days after treatment
Method in brief: as §2

[7] = test system: Monochoria vaginalis; assay: as above; settings: 120 g/10a; treatment seven days after sowing in flooded paddy pot; assessed 14 days after treatment
Method in brief: as §2

[8] = test system: Scirpus juncoides; assay: as above; settings: 120 g/10a; treatment seven days after sowing in flooded paddy pot; assessed 14 days after treatment
Method in brief: as §2

[9] = test system: Amaranthus viridis; assay: Test Example 13: herbicidal effect test by soil treatment in upland field; settings: 120 g/10a, 14 days after treatment
Description: (§3) A pot having a size of 36 cm^2 was filled with field soil (alluvial soil) and after mixing the soil of the surface layer of 1 cm with 20 grains of each weed seed of crabgrass, Echinochloa crus-galli, Chenopodium album and Amaranthus viridis, the surface layer was pressed lightly. One day after the sowing, an emulsifiable concentrate prepared according to Formulation Example 15 by using the compound shown in Table 11 below was diluted with water, and the water-diluted formulation was sprayed on the soil surface at a ratio of 100 liter per 10 are. The application rate of the active ingredient, by conversion, corresponded to 120 g per 10 are. Fourteen Days after the formulation treatment, the herbicidal effect was evaluated by the same criteria as in Test Example 11.

[10] = test system: Chenopodium album; assay: as above; settings: 120 g/10a, 14 days after treatment
Description: as §3

[11] = test system: Echinochloa crus-galli; assay: as above; settings: 120 g/10a, 14 days after treatment
Description: as §3

[12] = test system: crabgrass; assay: as above; settings: 120 g/10a, 14 days after treatment
Description: as §3

[13] = test system: Chenopodium album; assay: Test Example 14: herbicidal effect test by foliage treatment in upland field; settings: 7 days after sowing, 120 g/10a, 14 days after treatment
Method in brief: (§4)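 Weeds sown 20 seeds each in alluvial field soil; 7 days after sowing, water-diluted emulsifiable concentrate sprayed at 100 L per 10 are, 120 g active ingredient per 10 are. Suppression rate (%) from dry weight versus untreated plots at 14 days, two replicates.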

[14] = test system: crabgrass; assay: as above; settings: 7 days after sowing, 120 g/10a, 14 days after treatment
Method in brief: as §4

[15] = test system: Amaranthus viridis; assay: as above; settings: 7 days after sowing, 120 g/10a, 14 days after treatment
Method in brief: as §4

[16] = test system: Echinochloa crus-galli; assay: as above; settings: 7 days after sowing, 120 g/10a, 14 days after treatment
Method in brief: as §4

Structure (SMILES): CCN(CC)C(=O)n1cnn(S(=O)(=O)c2ccccc2)c1=O [Compound 11-352]
- Weed suppression rate (%) Echinochloa crus-galli [1]: 100%
- Weed suppression rate (%) Lindemia pyxidaria [2]: 60%
- Weed suppression rate (%) Monochoria vaginalis [3]: 50%
- Weed suppression rate (%) Scirpus juncoides [4]: 60%
- Weed suppression rate (%) Echinochloa crus-galli [5]: 100%
- Weed suppression rate (%) Lindemia pyxidaria [6]: 70%
- Weed suppression rate (%) Monochoria vaginalis [7]: 60%
- Weed suppression rate (%) Scirpus juncoides [8]: 60%
- herbicidal effect, Amaranthus viridis [9]: 0%
- herbicidal effect, Chenopodium album [10]: 40%
- herbicidal effect, Echinochloa crus-galli [11]: 80%
- herbicidal effect, Crabgrass [12]: 80%

Structure (SMILES): CC(C)N(C(=O)n1cnn(S(=O)(=O)c2ccccc2)c1=O)c1ccc(F)cc1 [Compound 11-358]
- Weed suppression rate (%) Echinochloa crus-galli [1]: 90%
- Weed suppression rate (%) Lindemia pyxidaria [2]: 80%
- Weed suppression rate (%) Monochoria vaginalis [3]: 80%
- Weed suppression rate (%) Scirpus juncoides [4]: 90%
- Weed suppression rate (%) Echinochloa crus-galli [5]: 90%
- Weed suppression rate (%) Lindemia pyxidaria [6]: 80%
- Weed suppression rate (%) Monochoria vaginalis [7]: 80%
- Weed suppression rate (%) Scirpus juncoides [8]: 90%
- herbicidal effect, Amaranthus viridis [9]: 90%
- herbicidal effect, Chenopodium album [10]: 80%
- herbicidal effect, Echinochloa crus-galli [11]: 80%
- herbicidal effect, Crabgrass [12]: 90%

Structure (SMILES): CCN(CC)C(=O)n1cnn(S(=O)(=O)c2ccc(C)cc2)c1=O [Compound 11-625]
- Weed suppression rate (%) Echinochloa crus-galli [1]: 100%
- Weed suppression rate (%) Lindemia pyxidaria [2]: 80%
- Weed suppression rate (%) Monochoria vaginalis [3]: 40%
- Weed suppression rate (%) Scirpus juncoides [4]: 60%
- herbicidal effect, Amaranthus viridis [9]: 0%
- herbicidal effect, Chenopodium album [10]: 0%
- herbicidal effect, Echinochloa crus-galli [11]: 80%
- herbicidal effect, Crabgrass [12]: 80%

Structure (SMILES): CCN(CC)C(=O)n1cnn(S(=O)(=O)c2ccc(C(C)(C)C)cc2)c1=O [Compound 11-670]
- Weed suppression rate (%) Echinochloa crus-galli [1]: 50%
- Weed suppression rate (%) Lindemia pyxidaria [2]: 70%
- Weed suppression rate (%) Monochoria vaginalis [3]: 50%
- Weed suppression rate (%) Scirpus juncoides [4]: 60%
- herbicidal effect, Amaranthus viridis [9]: 0%
- herbicidal effect, Chenopodium album [10]: 0%
- herbicidal effect, Echinochloa crus-galli [11]: 70%
- herbicidal effect, Crabgrass [12]: 70%

Structure (SMILES): CC(C)N(C(=O)n1cnn(S(=O)(=O)c2cccnc2)c1=O)c1ccc(F)cc1F [Compound 11-985]
- Weed suppression rate (%) Echinochloa crus-galli [1]: 90%
- Weed suppression rate (%) Lindemia pyxidaria [2]: 60%
- Weed suppression rate (%) Monochoria vaginalis [3]: 40%
- Weed suppression rate (%) Scirpus juncoides [4]: 40%
- herbicidal effect, Amaranthus viridis [9]: 0%
- herbicidal effect, Chenopodium album [10]: 0%
- herbicidal effect, Echinochloa crus-galli [11]: 80%
- herbicidal effect, Crabgrass [12]: 80%

Structure (SMILES): CN(C(=O)n1cnn(S(=O)(=O)C2CCCCC2)c1=O)c1ccc(F)cc1F [Compound 11-1129]
- Weed suppression rate (%) Echinochloa crus-galli [1]: 100%
- Weed suppression rate (%) Lindemia pyxidaria [2]: 100%
- Weed suppression rate (%) Monochoria vaginalis [3]: 100%
- Weed suppression rate (%) Scirpus juncoides [4]: 100%
- Weed suppression rate (%) Echinochloa crus-galli [5]: 100%
- Weed suppression rate (%) Lindemia pyxidaria [6]: 70%
- Weed suppression rate (%) Monochoria vaginalis [7]: 80%
- Weed suppression rate (%) Scirpus juncoides [8]: 100%
- herbicidal effect, Chenopodium album [13]: 60%
- herbicidal effect, Crabgrass [14]: 90%
- herbicidal effect, Amaranthus viridis [15]: 70%
- herbicidal effect, Echinochloa crus-galli [16]: 70%

Structure (SMILES): CCS(=O)(=O)n1ncn(C(=O)N(c2ccc(F)c(F)c2F)C(C)C)c1=O [Compound 11-1152]
- Weed suppression rate (%) Echinochloa crus-galli [1]: 100%
- Weed suppression rate (%) Lindemia pyxidaria [2]: 100%
- Weed suppression rate (%) Monochoria vaginalis [3]: 100%
- Weed suppression rate (%) Scirpus juncoides [4]: 100%
- Weed suppression rate (%) Echinochloa crus-galli [5]: 100%
- Weed suppression rate (%) Lindemia pyxidaria [6]: 100%
- Weed suppression rate (%) Monochoria vaginalis [7]: 100%
- Weed suppression rate (%) Scirpus juncoides [8]: 100%
- herbicidal effect, Chenopodium album [13]: 80%
- herbicidal effect, Crabgrass [14]: 100%
- herbicidal effect, Amaranthus viridis [15]: 90%
- herbicidal effect, Echinochloa crus-galli [16]: 100%
